Test system: Hirsutella rhossiliensis
Experiment: Effect of carbon source on growth, sporulation and spore germination
Details: for Growth mm-in-diam, on agar: carbon source 4 g/liter carbon; for Growth mm-in-diam, on agar / Sporulation 10^3/cm^2, on agar / growth in liquid culture (visual rating): 5 weeks; for Sporulation 10^3/cm^2, on agar / Spore germination %, on agar / growth in liquid culture (visual rating): carbon source; for Spore germination %, on agar: after incubation for 24 hr

Compound | Growth mm-in-diam, on agar (isolate ATCC46487) | Growth mm-in-diam, on agar (isolate JA16-1) | Growth mm-in-diam, on agar (isolate OWVT-1) | Sporulation 10^3/cm^2, on agar (isolate ATCC46487) | Spore germination %, on agar (isolate ATCC46487) | Sporulation 10^3/cm^2, on agar (isolate JA16-1) | Spore germination %, on agar (isolate JA16-1) | Sporulation 10^3/cm^2, on agar (isolate OWVT-1) | Spore germination %, on agar (isolate OWVT-1) | growth in liquid culture (visual rating) (isolate ATCC46487) | growth in liquid culture (visual rating) (isolate JA16-1) | growth in liquid culture (visual rating) (isolate OWVT-1)
O=C[C@H](O)[C@@H](O)[C@H](O)CO [D(+)xylose] | 0.0 mm-in-diam | 0.0 mm-in-diam | 0.0 mm-in-diam | 0.0 10^3/cm^2 | 21.1% | 2.5 10^3/cm^2 | 24.4% | 0.0 10^3/cm^2 | 26.7% | – | – | –
OC[C@H]1O[C@@H](O[C@H]2[C@H](O)[C@@H](O)[C@H](O)O[C@@H]2CO)[C@H](O)[C@@H](O)[C@@H]1O [D-(+)-cellubiose] | 33.0 mm-in-diam | 10.0 mm-in-diam | – | 13.8 10^3/cm^2 | 58.9% | 88.8 10^3/cm^2 | 52.2% | 23.9 10^3/cm^2 | 52.2% | I | I | I
OC[C@@H](O)[C@@H](O)[C@H](O)[C@@H](O)CO [D-sorbitol] | 30.3 mm-in-diam | 18.3 mm-in-diam | 11.7 mm-in-diam | 64.7 10^3/cm^2 | 57.8% | 4.2 10^3/cm^2 | 67.8% | 126.0 10^3/cm^2 | 56.7% | III (III = hyphae growth or colonies form a pellet, less than 2.5 ml) | I | –
O=C[C@H](O)[C@@H](O)[C@@H](O)[C@H](O)CO [D(+)galactose] | 25.0 mm-in-diam | 0.0 mm-in-diam | 7.0 mm-in-diam | 2.8 10^3/cm^2 | 62.2% | 7.4 10^3/cm^2 | 43.3% | 7.7 10^3/cm^2 | 43.3% | I | – | –
Glycogen | 46.8 mm-in-diam | 20.5 mm-in-diam | 34.8 mm-in-diam | 77.5 10^3/cm^2 | 72.2% | 12.4 10^3/cm^2 | 77.8% | 7.9 10^3/cm^2 | 72.2% | – | IV (IV = the pellet diameter larger than 1 cm, but the total volume distribution less than 5 ml) | IV (IV = the pellet diameter larger than 1 cm, but the total volume distribution less than 5 ml)
OC[C@H]1O[C@@](CO)(O[C@H]2O[C@H](CO)[C@@H](O)[C@H](O)[C@H]2O)[C@@H](O)[C@@H]1O [Sucrose] | 39.5 mm-in-diam | 15.0 mm-in-diam | 21.8 mm-in-diam | 38.9 10^3/cm^2 | 55.6% | 6.9 10^3/cm^2 | 73.4% | 47.7 10^3/cm^2 | 52.2% | III (III = hyphae growth or colonies form a pellet, less than 2.5 ml) | I | –
O=C[C@H](O)[C@H](O)[C@H](O)CO [D(−) ribose] | 15.5 mm-in-diam | 0.0 mm-in-diam | 8.0 mm-in-diam | 61.3 10^3/cm^2 | 48.9% | 0.0 10^3/cm^2 | 15.5% | 1.4 10^3/cm^2 | 45.6% | – | – | –
Inulin | 36.7 mm-in-diam | 20.0 mm-in-diam | 25.2 mm-in-diam | 3.5 10^3/cm^2 | 54.4% | 10.4 10^3/cm^2 | 72.2% | 4.2 10^3/cm^2 | 50.0% | – | I | –
O=C[C@@H](O)[C@H](O)[C@H](O)CO [D-(−)-arabinose] | 18.0 mm-in-diam | 0.0 mm-in-diam | 9.7 mm-in-diam | 22.3 10^3/cm^2 | 48.9% | 27.0 10^3/cm^2 | 32.2% | 35.2 10^3/cm^2 | 40.0% | – | – | –
O=C(CO)[C@@H](O)[C@H](O)[C@@H](O)CO [L-(−)-sorbose] | 7.8 mm-in-diam | 0.0 mm-in-diam | 6.7 mm-in-diam | 62.5 10^3/cm^2 | 35.6% | 0.0 10^3/cm^2 | 13.3% | 7.4 10^3/cm^2 | 26.7% | I | – | I
O=C(CO)[C@@H](O)[C@H](O)[C@H](O)CO [D(−)fructose] | 16.2 mm-in-diam | 0.0 mm-in-diam | 8.5 mm-in-diam | 50.2 10^3/cm^2 | 45.6% | 0.0 10^3/cm^2 | 34.4% | 36.8 10^3/cm^2 | 50.0% | I | – | I
OC[C@@H](O)[C@@H](O)[C@H](O)[C@H](O)CO [D-mannitol] | 29.5 mm-in-diam | 18.0 mm-in-diam | 23.2 mm-in-diam | 15.9 10^3/cm^2 | 58.9% | 17.3 10^3/cm^2 | 61.1% | 40.6 10^3/cm^2 | 60.0% | III (III = hyphae growth or colonies form a pellet, less than 2.5 ml) | I | –
OC[C@H]1O[C@H](O[C@H]2O[C@H](CO)[C@@H](O)[C@H](O)[C@H]2O)[C@H](O)[C@@H](O)[C@@H]1O [D(+) trehalose] | 36.5 mm-in-diam | 18.3 mm-in-diam | 30.2 mm-in-diam | 172.6 10^3/cm^2 | 60.0% | 5.2 10^3/cm^2 | 68.9% | 49.2 10^3/cm^2 | 62.2% | – | – | –
O=C[C@H](O)[C@@H](O)[C@H](O)[C@H](O)CO [D-(+)-glucose] | 28.3 mm-in-diam | 6.5 mm-in-diam | 8.0 mm-in-diam | 7.7 10^3/cm^2 | 61.1% | 28.1 10^3/cm^2 | 65.5% | 30.7 10^3/cm^2 | 56.7% | I | – | I
